Measured values reported in ChEMBL document CHEMBL1201862, “PubChem BioAssay data set” (2004).
Activity calls are given as the source filed them.

Columns and labels:
Mucolipin-3 = Mucolipin-3 (Homo sapiens, UniProt Q8TDD5); assay: Dose response cell-based high-throughput screening assay for agonists of the transient receptor potential channel ML3 (TRPML3). [Related pubchem assays: 1526, 1424, 1448 ]; assay type: functional
Ion channel NompC = Ion channel NompC (Danio rerio, UniProt Q7T1G6); assay: Fluorescence counterscreen assay for TRPML3 agonists: dose response cell-based high-throughput screening assay to identify agonists of the transient receptor potential channel N1 (TRPN1). [Related pubchem assays: 1526, 1424, 1448 ]; assay type: functional
[1] = target: T1, Alkaline phosphatase, tissue-nonspecific isozyme (Homo sapiens, UniProt P05186)
T1 sequence (P05186 whole entry): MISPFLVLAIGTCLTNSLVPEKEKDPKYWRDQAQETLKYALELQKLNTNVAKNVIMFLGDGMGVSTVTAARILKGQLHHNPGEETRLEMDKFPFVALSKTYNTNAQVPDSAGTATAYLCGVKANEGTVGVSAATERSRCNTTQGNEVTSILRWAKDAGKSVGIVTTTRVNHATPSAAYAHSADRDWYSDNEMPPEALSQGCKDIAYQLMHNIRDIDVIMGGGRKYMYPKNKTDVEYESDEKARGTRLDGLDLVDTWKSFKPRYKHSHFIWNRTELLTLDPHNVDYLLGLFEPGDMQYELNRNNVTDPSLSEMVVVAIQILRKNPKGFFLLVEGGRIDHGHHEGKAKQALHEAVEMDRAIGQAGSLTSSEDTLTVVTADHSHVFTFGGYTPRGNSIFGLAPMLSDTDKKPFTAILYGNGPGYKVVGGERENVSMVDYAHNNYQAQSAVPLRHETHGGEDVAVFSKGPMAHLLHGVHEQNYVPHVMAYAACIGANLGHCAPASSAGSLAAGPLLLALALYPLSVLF

NS3 = NS3 (Hepatitis C virus, UniProt A3EZJ3); assay: PubChem AID 2173; parameters: species or system Hepacivirus hominis
[2] = NIH-3T3 fibroblast cytotoxicity, dose response, cytotoxicity control, cell-based, fluorescence, Alamar Blue, secondary assay (AID 2327); assay type: functional;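 further: NIH-3T3 mouse fibroblasts cultured with fluconazole at 8 µg/mL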
[3] = target: 26S proteasome non-ATPase regulatory subunit 14 (Homo sapiens, UniProt O00487); assay: inhibition of proteasome subunit RPN11 – biochemical, fluorescence polarization, uHTS hits, confirmation (AID 602368); assay type: functional
Prothrombin = Prothrombin (Bos taurus, UniProt P00735); assay: thrombin inhibition, dose response, biochemical, fluorescence polarization, uHTS hits (AID 602369); assay type: functional
[4] = target: 72 kDa type IV collagenase (Homo sapiens, UniProt P08253); assay: Dose Response validation of uHTS RPN11 inhibitor hits using a MMP-2 Fluorescence assay.; assay type: functional
[5] = C. albicans growth with fluconazole, confirmation, fluorescence, retest (AID 2467); assay type: functional, cell-based
[6] = target: T2, Heat shock factor protein 1 (Mus musculus, UniProt P38532); assay: inhibition of MG132-induced HSE-luciferase signal, confirmation, cell-based, NIH3T3, luminescence, dose retest (AID 2382); assay type: functional;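 further: NIH3T3 fibroblasts with HSF1-driven luciferase reporter stressed by proteasome inhibitor MG132; luminescence from HSF1-driven luciferase expression after 8 hours of MG132 stress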
T2 sequence (P38532 whole entry): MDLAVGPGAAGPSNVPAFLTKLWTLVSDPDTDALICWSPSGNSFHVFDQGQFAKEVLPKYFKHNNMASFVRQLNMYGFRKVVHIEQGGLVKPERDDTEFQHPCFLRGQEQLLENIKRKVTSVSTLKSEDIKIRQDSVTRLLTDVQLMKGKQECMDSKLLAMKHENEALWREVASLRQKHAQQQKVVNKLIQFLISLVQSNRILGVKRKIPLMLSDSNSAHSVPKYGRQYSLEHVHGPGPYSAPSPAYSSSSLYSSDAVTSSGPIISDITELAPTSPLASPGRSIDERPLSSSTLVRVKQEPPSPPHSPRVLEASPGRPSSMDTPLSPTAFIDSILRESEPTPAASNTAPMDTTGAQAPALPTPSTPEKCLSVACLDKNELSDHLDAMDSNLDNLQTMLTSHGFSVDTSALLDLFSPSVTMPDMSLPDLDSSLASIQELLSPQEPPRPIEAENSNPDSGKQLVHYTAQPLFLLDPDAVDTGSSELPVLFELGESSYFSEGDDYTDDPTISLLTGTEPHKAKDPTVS

Estrogen receptor = target: T3, Estrogen receptor (Homo sapiens, UniProt P03372); assay: potentiators of ERα–SRC-1 coactivator binding, dose response, biochemical, TR-FRET, ERα LBD (AID 737)
T3 sequence (P03372 whole entry): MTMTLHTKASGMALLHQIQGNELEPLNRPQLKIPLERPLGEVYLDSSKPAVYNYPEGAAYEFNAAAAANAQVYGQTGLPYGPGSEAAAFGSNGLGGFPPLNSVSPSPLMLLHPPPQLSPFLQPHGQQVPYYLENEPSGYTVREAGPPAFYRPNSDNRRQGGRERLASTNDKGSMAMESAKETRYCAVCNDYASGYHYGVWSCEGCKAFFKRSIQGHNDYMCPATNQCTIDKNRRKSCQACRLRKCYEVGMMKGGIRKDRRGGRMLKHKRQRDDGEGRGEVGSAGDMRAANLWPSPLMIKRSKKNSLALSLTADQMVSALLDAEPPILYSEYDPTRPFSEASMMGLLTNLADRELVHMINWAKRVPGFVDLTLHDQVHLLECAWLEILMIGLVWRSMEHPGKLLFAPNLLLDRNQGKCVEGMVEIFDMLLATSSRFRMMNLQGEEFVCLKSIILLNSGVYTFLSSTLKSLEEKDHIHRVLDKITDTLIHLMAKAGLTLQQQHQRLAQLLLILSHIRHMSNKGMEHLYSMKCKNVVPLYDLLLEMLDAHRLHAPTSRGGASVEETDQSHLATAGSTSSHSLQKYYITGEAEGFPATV

Aspartyl aminopeptidase = Aspartyl aminopeptidase (Plasmodium falciparum 3D7, UniProt Q8I2J3)
Procathepsin L = Procathepsin L (Homo sapiens, UniProt P07711)
Aminopeptidase N = target: T4, Aminopeptidase N (Plasmodium falciparum FcB1/Columbia, UniProt O96935); assay: P. falciparum M1AAP inhibitors, biochemical, fluorogenic H-Leu-NHMec substrate, 1536-well (AID 1445); parameters: species or system Plasmodium falciparum 3D7, 3D7
T4 sequence (O96935 whole entry): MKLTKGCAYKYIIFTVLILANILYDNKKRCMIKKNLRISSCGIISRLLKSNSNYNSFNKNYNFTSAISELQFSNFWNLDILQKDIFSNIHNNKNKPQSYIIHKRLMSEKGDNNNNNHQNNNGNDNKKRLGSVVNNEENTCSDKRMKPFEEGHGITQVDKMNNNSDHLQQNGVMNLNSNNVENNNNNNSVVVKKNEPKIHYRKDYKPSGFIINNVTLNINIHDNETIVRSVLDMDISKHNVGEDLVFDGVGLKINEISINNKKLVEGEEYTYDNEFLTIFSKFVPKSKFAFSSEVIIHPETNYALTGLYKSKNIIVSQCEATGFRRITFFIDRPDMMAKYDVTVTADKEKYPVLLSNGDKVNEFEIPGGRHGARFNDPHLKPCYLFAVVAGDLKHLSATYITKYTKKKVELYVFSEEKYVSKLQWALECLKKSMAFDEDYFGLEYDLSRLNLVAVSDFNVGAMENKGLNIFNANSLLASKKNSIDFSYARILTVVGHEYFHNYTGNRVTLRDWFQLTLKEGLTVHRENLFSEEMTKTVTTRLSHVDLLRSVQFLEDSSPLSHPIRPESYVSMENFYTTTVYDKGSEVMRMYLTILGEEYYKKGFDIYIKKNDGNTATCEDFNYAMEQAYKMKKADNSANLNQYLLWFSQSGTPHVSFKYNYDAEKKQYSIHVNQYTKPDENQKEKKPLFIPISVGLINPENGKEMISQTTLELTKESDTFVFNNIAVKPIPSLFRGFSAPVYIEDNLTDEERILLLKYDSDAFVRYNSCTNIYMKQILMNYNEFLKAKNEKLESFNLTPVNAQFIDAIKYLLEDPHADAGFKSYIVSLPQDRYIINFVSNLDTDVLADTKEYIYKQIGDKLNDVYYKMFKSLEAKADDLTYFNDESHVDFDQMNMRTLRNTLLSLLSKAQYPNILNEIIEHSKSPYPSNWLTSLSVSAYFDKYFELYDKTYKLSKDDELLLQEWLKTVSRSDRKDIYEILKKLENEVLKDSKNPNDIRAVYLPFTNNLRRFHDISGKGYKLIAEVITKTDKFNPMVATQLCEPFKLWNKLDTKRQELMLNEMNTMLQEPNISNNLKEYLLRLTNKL

[7] = inhibitors of Bluetongue virus cytopathic effect, confirmation, arbovirus, BSR cells (AID 1250); assay type: functional;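 further: protection from viral cytopathic effect measured as cell viability by ATP luminescence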
[8] = target: T5, Oxysterols receptor LXR-beta (Homo sapiens, UniProt P55055); assay: LXR agonists, Gal4 luciferase reporter, dose response, counter-screen for ssDAF-12 agonist project, cell-based, luminescence, HEK293, S. stercoralis campaign (AID 720737); assay type: functional; settings: read-out: IC50 (the source's name)
T5 sequence (P55055 whole entry): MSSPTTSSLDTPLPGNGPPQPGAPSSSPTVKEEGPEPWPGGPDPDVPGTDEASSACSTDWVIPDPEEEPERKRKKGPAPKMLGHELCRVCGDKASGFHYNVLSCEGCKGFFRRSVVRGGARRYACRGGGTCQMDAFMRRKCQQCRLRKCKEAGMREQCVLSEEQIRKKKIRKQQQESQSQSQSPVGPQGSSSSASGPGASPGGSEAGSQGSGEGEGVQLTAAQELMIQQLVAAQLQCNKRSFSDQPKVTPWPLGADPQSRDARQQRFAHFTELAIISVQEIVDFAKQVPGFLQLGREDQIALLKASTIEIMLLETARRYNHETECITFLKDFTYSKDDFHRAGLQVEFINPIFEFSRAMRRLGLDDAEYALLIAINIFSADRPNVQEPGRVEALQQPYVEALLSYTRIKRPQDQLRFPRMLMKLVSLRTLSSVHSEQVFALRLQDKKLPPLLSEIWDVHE

[9] = Luminescence-based cell-based high throughput dose response assay to identify activators of the DAF-12 from the parasite S. stercoralis (ssDAF-12).; assay type: functional
[10] = Counterscreen for IDE inhibitors: Luminescence-based cell-based high throughput dose response assay to identify compounds that are cytotoxic to HEK cells. [Related pubchem assays: 434962 (Primary screen (IDE inhibitors in singlicate)), 449730 (Counterscreen (Cytotoxicity in triplicate)), 435028 (Confirmation (IDE inhibitors in triplicate)) …; assay type: functional; settings: HEK293
Insulin-degrading enzyme = target: T6, Insulin-degrading enzyme (Homo sapiens, UniProt P14735); assay: Dose Response: Fluorescence polarization-based cell-based high throughput dose response assay for inhibitors of insulin-degrading enzyme (IDE). [Related pubchem assays: 434962 (Primary screen (IDE inhibitors in singlicate)), 449730 (Counterscreen (Cytotoxicity in triplicate)), 435028 (Confirmation (IDE inhibitors in triplicate)), 434984 (Summary …; assay type: functional
T6 sequence (P14735 whole entry): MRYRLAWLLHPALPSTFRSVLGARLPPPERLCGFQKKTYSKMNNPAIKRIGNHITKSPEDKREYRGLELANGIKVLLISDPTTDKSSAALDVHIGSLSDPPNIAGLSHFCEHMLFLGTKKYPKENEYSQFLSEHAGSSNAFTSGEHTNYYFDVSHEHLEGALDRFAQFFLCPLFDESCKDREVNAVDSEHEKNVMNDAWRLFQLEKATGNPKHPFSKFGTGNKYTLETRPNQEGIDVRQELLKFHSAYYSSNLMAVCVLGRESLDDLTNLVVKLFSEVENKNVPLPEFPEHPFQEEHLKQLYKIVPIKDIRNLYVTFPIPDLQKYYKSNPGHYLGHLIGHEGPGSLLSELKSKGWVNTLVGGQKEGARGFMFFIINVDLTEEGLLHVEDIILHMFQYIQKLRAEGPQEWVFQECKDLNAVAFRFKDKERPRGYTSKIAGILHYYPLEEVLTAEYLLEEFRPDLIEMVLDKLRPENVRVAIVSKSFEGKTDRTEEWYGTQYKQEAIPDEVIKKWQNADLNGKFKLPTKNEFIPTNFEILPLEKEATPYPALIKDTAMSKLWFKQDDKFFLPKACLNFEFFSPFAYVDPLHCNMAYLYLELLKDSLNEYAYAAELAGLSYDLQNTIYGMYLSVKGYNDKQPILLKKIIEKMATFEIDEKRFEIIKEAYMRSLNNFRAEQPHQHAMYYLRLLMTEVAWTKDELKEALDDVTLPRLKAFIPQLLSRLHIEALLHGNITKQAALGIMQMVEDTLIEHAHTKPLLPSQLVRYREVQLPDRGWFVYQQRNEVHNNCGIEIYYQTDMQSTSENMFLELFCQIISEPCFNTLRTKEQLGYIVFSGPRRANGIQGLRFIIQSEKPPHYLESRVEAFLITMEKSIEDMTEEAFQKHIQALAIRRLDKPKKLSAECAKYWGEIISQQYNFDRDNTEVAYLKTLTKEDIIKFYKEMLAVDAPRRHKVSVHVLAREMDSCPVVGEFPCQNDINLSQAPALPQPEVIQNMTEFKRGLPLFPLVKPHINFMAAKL

[11] = enhancers of respiration in Yfh1-depleted yeast, dose response, Friedreich's ataxia, plus single-dose screen (AID 1465); assay type: functional;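 further: yeast depleted of Yfh1p frataxin homolog grown on glycerol needing respiration; WST-1 tetrazolium dye reduction as measure of cellular dehydrogenase metabolic activity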

Sequence of Ion channel NompC (Q7T1G6 whole entry): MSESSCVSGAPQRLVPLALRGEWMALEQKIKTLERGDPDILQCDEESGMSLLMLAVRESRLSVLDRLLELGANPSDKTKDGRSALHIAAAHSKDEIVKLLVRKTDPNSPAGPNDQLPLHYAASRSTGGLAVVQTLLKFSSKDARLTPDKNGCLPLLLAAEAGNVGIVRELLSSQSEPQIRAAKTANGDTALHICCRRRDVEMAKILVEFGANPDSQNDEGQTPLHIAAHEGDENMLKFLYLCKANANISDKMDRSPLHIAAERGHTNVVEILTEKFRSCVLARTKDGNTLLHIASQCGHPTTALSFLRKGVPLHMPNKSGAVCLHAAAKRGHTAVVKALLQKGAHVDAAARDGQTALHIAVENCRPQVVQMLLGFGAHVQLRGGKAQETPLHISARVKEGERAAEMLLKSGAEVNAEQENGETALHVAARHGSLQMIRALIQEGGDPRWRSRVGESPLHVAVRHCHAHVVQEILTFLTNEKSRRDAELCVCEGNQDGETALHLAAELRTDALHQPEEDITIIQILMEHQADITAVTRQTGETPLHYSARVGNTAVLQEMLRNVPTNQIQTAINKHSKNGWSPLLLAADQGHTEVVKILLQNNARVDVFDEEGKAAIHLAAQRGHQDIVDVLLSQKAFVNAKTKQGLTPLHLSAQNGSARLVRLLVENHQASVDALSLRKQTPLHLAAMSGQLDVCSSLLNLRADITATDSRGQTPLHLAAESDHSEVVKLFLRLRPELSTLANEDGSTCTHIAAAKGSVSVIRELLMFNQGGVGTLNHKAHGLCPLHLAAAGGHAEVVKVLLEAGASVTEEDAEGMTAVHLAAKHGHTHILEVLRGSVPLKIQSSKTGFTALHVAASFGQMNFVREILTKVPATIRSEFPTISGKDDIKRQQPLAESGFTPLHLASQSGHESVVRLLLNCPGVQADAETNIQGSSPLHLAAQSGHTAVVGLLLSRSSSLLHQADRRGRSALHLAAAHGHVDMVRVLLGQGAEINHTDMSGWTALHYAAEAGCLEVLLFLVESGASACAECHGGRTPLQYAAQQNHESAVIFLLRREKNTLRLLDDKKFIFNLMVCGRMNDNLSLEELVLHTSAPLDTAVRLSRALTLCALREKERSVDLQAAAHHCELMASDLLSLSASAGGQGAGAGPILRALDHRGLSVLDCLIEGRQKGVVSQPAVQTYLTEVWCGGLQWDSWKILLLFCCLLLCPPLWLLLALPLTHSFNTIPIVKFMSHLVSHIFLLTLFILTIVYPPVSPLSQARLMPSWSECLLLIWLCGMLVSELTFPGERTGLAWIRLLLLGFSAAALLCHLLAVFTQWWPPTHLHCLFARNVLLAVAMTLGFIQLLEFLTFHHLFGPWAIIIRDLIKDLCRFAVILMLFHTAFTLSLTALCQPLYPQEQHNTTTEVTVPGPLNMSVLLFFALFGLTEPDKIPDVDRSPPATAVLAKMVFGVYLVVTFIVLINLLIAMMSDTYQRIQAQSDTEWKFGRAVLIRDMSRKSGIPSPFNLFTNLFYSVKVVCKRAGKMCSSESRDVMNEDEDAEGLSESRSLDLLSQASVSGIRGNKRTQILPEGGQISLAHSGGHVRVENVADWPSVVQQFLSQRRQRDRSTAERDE
Sequence of NS3 (A3EZJ3 whole entry): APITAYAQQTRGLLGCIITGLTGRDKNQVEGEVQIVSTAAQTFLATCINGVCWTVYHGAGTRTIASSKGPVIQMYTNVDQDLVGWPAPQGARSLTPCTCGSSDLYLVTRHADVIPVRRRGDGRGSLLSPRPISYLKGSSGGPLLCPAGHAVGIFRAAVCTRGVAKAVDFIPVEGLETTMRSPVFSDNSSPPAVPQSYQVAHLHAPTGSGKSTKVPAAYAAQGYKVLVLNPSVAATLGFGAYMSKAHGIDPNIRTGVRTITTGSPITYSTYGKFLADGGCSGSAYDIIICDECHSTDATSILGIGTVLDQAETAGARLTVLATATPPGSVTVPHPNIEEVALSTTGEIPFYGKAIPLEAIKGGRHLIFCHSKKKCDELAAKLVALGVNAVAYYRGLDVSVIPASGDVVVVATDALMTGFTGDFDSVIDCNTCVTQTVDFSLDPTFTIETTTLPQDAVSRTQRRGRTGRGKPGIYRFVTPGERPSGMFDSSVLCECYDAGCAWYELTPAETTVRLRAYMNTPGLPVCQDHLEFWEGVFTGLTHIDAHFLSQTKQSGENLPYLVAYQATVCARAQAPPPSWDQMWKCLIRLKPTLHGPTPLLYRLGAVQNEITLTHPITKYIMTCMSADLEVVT
Sequence of Mucolipin-3 (Q8TDD5 whole entry): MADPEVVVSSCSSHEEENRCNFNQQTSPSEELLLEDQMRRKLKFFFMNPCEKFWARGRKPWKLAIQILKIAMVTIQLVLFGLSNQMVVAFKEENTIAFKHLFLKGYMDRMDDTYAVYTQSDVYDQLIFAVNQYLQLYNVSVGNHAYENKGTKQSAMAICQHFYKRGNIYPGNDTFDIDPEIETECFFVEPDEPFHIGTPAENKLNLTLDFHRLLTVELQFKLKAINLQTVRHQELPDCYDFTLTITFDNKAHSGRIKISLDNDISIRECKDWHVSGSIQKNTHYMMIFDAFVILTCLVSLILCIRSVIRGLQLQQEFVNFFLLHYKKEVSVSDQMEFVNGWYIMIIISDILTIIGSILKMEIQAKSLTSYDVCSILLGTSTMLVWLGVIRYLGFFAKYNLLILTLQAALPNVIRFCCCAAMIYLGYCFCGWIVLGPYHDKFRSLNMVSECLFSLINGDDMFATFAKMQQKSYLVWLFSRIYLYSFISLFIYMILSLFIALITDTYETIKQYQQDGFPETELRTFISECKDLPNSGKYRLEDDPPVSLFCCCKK
Sequence of Aspartyl aminopeptidase (Q8I2J3 whole entry): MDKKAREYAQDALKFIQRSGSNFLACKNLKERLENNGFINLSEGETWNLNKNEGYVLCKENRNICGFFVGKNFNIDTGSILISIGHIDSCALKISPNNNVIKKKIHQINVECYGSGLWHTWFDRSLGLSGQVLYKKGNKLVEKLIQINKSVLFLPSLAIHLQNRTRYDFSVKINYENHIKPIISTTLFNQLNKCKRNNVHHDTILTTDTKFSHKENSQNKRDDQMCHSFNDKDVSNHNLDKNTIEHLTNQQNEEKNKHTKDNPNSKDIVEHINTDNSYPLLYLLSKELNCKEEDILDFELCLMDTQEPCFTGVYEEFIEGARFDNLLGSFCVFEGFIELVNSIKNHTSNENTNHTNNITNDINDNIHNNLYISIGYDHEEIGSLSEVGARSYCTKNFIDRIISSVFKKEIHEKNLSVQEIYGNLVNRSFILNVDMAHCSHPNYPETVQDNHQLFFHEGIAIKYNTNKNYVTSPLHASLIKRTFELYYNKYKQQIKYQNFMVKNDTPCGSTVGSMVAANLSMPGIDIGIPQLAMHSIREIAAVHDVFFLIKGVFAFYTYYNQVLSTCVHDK
Sequence of Procathepsin L (P07711 whole entry): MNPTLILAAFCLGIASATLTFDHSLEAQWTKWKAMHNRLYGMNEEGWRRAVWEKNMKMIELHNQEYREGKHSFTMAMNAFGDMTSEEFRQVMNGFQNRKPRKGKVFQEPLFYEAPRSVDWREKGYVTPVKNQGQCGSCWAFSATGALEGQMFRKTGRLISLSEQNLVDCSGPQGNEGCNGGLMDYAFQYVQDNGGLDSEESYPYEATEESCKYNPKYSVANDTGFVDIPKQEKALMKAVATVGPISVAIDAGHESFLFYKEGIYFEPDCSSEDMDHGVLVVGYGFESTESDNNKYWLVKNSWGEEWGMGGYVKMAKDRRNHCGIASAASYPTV
Sequence of 26S proteasome non-ATPase regulatory subunit 14 (O00487 whole entry): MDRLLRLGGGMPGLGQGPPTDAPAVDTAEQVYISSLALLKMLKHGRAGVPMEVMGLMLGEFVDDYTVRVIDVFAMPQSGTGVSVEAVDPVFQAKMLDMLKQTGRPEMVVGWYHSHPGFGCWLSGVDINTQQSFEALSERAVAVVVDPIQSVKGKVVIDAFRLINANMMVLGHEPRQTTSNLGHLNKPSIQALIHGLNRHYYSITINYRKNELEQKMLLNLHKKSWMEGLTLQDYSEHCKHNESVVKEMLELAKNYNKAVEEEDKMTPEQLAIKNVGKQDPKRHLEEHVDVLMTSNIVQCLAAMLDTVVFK
Sequence of 72 kDa type IV collagenase (P08253 whole entry): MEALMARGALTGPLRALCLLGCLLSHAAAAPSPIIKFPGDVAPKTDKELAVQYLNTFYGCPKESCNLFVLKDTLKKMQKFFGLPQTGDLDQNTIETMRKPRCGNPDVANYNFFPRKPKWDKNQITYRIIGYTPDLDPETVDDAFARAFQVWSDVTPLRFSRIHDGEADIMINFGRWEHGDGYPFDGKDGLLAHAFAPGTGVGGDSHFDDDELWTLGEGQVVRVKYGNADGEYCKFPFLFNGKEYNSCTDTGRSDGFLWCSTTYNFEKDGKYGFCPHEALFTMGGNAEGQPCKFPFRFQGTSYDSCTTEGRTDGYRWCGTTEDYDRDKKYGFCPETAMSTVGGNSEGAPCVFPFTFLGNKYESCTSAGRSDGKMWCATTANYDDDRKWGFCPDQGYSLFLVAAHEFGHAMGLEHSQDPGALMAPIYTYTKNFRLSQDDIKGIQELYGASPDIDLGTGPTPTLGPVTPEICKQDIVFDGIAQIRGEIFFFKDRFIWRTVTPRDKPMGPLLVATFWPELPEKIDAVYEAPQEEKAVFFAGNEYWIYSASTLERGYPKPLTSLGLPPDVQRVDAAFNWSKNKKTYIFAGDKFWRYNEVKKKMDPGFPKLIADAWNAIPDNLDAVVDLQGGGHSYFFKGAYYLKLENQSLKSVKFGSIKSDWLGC

CCOC(=O)C(C)(C)N(Cc1cccc(C)c1)S(=O)(=O)c1cccc([N+](=O)[O-])c1
EC50 (Mucolipin-3): > 29.9 µM (not active)
EC50 (Ion channel NompC): > 29.9 µM (not active)

Cc1ccc(C(=O)NN=C(S)Nc2cccc3ccccc23)s1
EC50 [1]: 62.6 µM (not active)

O=C1NC(=S)N(CCC2=CCCCC2)C(=O)/C1=C/NNC(=O)c1ccccc1
IC50 (NS3): 5.41 µM (active)
EC50 [2]: > 150 µM (inconclusive)
IC50 [3]: 43.9 µM (active)
IC50 (Prothrombin): 62.2 µM (active)
IC50 [4]: > 100 µM (inactive)
EC50 [5]: > 38 µM (not active)

COc1nnc(-c2ccc(C(=O)N3C[C@@H]4C[C@H](C3)c3cccc(=O)n3C4)cc2)c2ccccc12
EC50 [6]: > 195 µM (not active)
EC50 (Estrogen receptor): 15 µM (active)

O=C(O)c1c[nH]nc1-n1cnnn1
IC50 (Aspartyl aminopeptidase): 1.27 µM (active)
IC50 (Procathepsin L): > 59.6 µM (not active)

Cc1ccc(C(=O)Nc2scc(-c3ccccc3)c2C(=O)O)o1
IC50 (Aminopeptidase N): 68.4 µM (active)
IC50 [7]: 34 µM (active)

N#C/C(=C\c1ccc(N2CCOCC2)o1)C(=O)NCC1CCCO1 (stereo not given)
EC50 [8]: > 67.5 µM (inactive)
IC50 [9]: > 67.5 µM (inactive)
IC50 [10]: > 55.7 µM (not active)
IC50 (Insulin-degrading enzyme): 25.3 µM (not active)
EC50 [11]: > 100 µM (active)
